Patent US20120308663A1, “LIPID NANOCAPSULES, METHOD FOR PREPARING SAME AND USE THEREOF AS A DRUG” (priority 2009, published 2012)

Key:
rats = conditions: in rats; cited from earlier work
HT-29 cells = assay type: cell-based
Protocol: The IC50 was calculated as being the concentration of SN38-LNCs, of SN38 or unloaded LNCs causing 50% cell death.

mice = conditions: in mice, intravenously; cited from earlier work

CCOCCOCCO [Transcutol®HP, diethyleneglycol monoethyl ether]
DL50 (rats): > 5 g/kg

CCc1c2c(nc3ccc(O)cc13)-c1cc3c(c(=O)n1C2)COC(=O)[C@]3(O)CC [free SN38, 7-ethyl-10-hydroxycamptothecin]
Cytotoxicity relative to CPT11 (times greater) (HT-29 cells): approximately 250 times

polyethyleneglycol-660 2-hydroxystearate [Solutol® HS 15]
DL50 (mice): > 3.16 g/kg
